Test systems include SNB-19 CNS; CCRF-CEM leukemia; OVCAR-8 ovarian; SNB-75 CNS; SF-268 CNS; SK-MEL-28 melanoma; KM12 colon; OVCAR-5 ovarian.
Common to all, as to assay: NCI-60 cell line screen, 48 h

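How tested: cells in 96-well plates exposed to compound for 48 hours at five concentrations. GI50 is the concentration that inhibits growth by half. TGI marks complete inhibition of growth.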

As for `N#Cc1cc([N+](=O)[O-])ccc1NC(=O)C(=O)Nc1n[nH]c(N)n1`, the TGI in the test with SNB-19 CNS, in the test with CCRF-CEM leukemia, with OVCAR-8 ovarian, with SNB-75 CNS, with SF-268 CNS and in the test on SK-MEL-28 melanoma was over 100 µM each time. Also, the TGI in the test with KM12 colon and in the test with OVCAR-5 ovarian was over 100 µM in each case.
With `CC(=O)CNC(=O)OC(C)(C)C`, the TGI with SNB-19 CNS, in the test on CCRF-CEM leukemia, with OVCAR-8 ovarian, in the test on SNB-75 CNS, with SF-268 CNS and with SK-MEL-28 melanoma was over 100 µM throughout. The TGI with KM12 colon and in the test with OVCAR-5 ovarian was over 100 µM throughout.
Take `C/C(CC(=O)Nc1ccc(C)cc1C)=N/N=C(N)N`: the TGI in the test on CCRF-CEM leukemia, in the test with OVCAR-8 ovarian, with SNB-75 CNS, in the test with SF-268 CNS, in the test with SK-MEL-28 melanoma and with KM12 colon was over 100 µM in each case. Also, the TGI in the test on OVCAR-5 ovarian is over 100 µM.
For the compound `COC12C=C(C)C(CC1)CC2C(=O)O` (centres undefined), the TGI with SNB-19 CNS, in the test with CCRF-CEM leukemia, in the test with OVCAR-8 ovarian, with SNB-75 CNS, with SF-268 CNS and in the test on SK-MEL-28 melanoma was over 100 µM throughout. Further, the TGI in the test with KM12 colon and with OVCAR-5 ovarian was over 100 µM in each case.
For the compound `O=C(/N=N/C(=O)OCc1ccccc1)OCc1ccccc1`, the TGI with SNB-19 CNS, in the test on CCRF-CEM leukemia, in the test on OVCAR-8 ovarian, in the test on SNB-75 CNS, in the test with SF-268 CNS and with KM12 colon was over 100 µM in each case. In addition, the TGI in the test on OVCAR-5 ovarian was over 100 µM.
For the compound `COc1ccc(/C=C/CN(C)CCc2ccccc2)cc1OC`, the TGI in the test on SNB-19 CNS, in the test with OVCAR-8 ovarian, in the test with SNB-75 CNS, with SF-268 CNS, in the test with SK-MEL-28 melanoma and in the test on KM12 colon was over 100 µM throughout. The compound further came in with a TGI in the test on OVCAR-5 ovarian of over 100 µM.
Regarding `COc1ccc(C2=CC3CCC2C3)cc1` (centres undefined), the TGI in the test on SNB-19 CNS, in the test on CCRF-CEM leukemia, in the test on OVCAR-8 ovarian, in the test with SNB-75 CNS, with SF-268 CNS and in the test on SK-MEL-28 melanoma was over 100 µM throughout. Moreover, the TGI in the test on KM12 colon and with OVCAR-5 ovarian was over 100 µM in each case.
As to `CC(C)(C)C1C=C(Sc2ccccc2)C(=O)O1` (centres undefined), the TGI in the test with SNB-19 CNS was over 100 µM; in the test with CCRF-CEM leukemia, over 100 µM; with OVCAR-8 ovarian it was over 100 µM; in the test on SNB-75 CNS, 83.8 µM; in the test with SF-268 CNS, over 100 µM; in the test with SK-MEL-28 melanoma, over 100 µM. For the same compound, the TGI in the test on KM12 colon and with OVCAR-5 ovarian was over 100 µM in each case.
Consider `[Cl-].[Dy+3].[O-]/N=C(\c1ccccc1)c1ccccn1.[O-]/N=C(\c1ccccc1)c1ccccn1.[O-]/N=C(\c1ccccc1)c1ccccn1`, for which the GI50 with SNB-19 CNS is 38 µM; with CCRF-CEM leukemia, 23.6 µM; in the test on OVCAR-8 ovarian, 35.8 µM; in the test on SNB-75 CNS it was 3.54 µM; in the test on SF-268 CNS it was 30.2 µM; with SK-MEL-28 melanoma, 27.6 µM. Further, the GI50 with KM12 colon was 55.3 µM; in the test on OVCAR-5 ovarian, 42.4 µM. For the same compound, the TGI in the test with SNB-19 CNS is over 100 µM; in the test on CCRF-CEM leukemia, 97.4 µM; in the test with OVCAR-8 ovarian it was over 100 µM; in the test on SNB-75 CNS, 22.1 µM; in the test with SF-268 CNS, 98.9 µM; with SK-MEL-28 melanoma, 90.8 µM. Moreover, the TGI with KM12 colon and in the test on OVCAR-5 ovarian was over 100 µM in each case.
Take `CCC[CH2][Sn]1([CH2]CCC)[O]Cc2nc(C)ccc2[O]1`: the GI50 was 3.95 µM in the test on SNB-19 CNS; 1.87 µM with CCRF-CEM leukemia; 9.1 µM in the test with OVCAR-8 ovarian; 4.63 µM in the test on SNB-75 CNS; 10.6 µM with SK-MEL-28 melanoma; 11.1 µM with KM12 colon. Besides, the GI50 in the test on OVCAR-5 ovarian was 12.3 µM. Besides, the TGI with SNB-19 CNS worked out at 14.9 µM; in the test with CCRF-CEM leukemia, 5.01 µM; with OVCAR-8 ovarian, 21.7 µM; in the test with SNB-75 CNS, 18.8 µM; in the test with SK-MEL-28 melanoma, 22.4 µM; with KM12 colon it was 23 µM. The compound also displayed a TGI with OVCAR-5 ovarian of 24.8 µM.
Consider `CC1=NN(C(=O)Nc2ccccc2)C(=O)C2CCC(=O)N12` (centres undefined), for which the TGI with SNB-19 CNS, with CCRF-CEM leukemia, with OVCAR-8 ovarian, in the test on SNB-75 CNS, in the test on SF-268 CNS and with SK-MEL-28 melanoma was over 100 µM each time. In the test with KM12 colon, this compound yielded a TGI of over 100 µM.
As for `COC(=O)/C(=N/NC(=O)C[N+](C)(C)C)C(C(=O)OC)C(=O)C(=O)Nc1ccc(F)cc1` (centres undefined), the TGI in the test on SNB-19 CNS, with CCRF-CEM leukemia, in the test with SNB-75 CNS, with SF-268 CNS, in the test with SK-MEL-28 melanoma and in the test on KM12 colon was over 100 µM in each case. In the test with OVCAR-5 ovarian, the TGI is over 100 µM.
As for `O=c1/c(=C/c2ccco2)sc2nc3ccccc3n12`, the GI50 with SNB-19 CNS is over 100 µM; with CCRF-CEM leukemia, over 100 µM; with OVCAR-8 ovarian it was over 100 µM; in the test on SNB-75 CNS, over 10 µM; with SK-MEL-28 melanoma it was over 100 µM. The TGI with SNB-19 CNS was over 100 µM; with CCRF-CEM leukemia, over 100 µM; in the test on OVCAR-8 ovarian, over 100 µM; with SNB-75 CNS it was over 100 µM; in the test on SF-268 CNS, over 10 µM; with SK-MEL-28 melanoma it was over 100 µM. The results for the TGI in the test on KM12 colon and with OVCAR-5 ovarian were over 100 µM and over 10 µM, respectively.
`O=C1CCC(=O)N2CCCCN12`: the TGI in the test on SNB-19 CNS, with CCRF-CEM leukemia, with OVCAR-8 ovarian, in the test on SNB-75 CNS, with SF-268 CNS and in the test on SK-MEL-28 melanoma was over 100 µM in each case. Further, the TGI in the test on KM12 colon and with OVCAR-5 ovarian was over 100 µM each time.
With `NC(=O)C(=O)N/N=C(\CC1(O)C(=O)Nc2ccccc21)c1ccc2ccccc2c1` (centres undefined), the TGI in the test on SNB-19 CNS is over 100 µM; in the test on CCRF-CEM leukemia, 48.5 µM; with OVCAR-8 ovarian it was over 100 µM; in the test on SNB-75 CNS, over 100 µM; with SF-268 CNS, over 100 µM; in the test with SK-MEL-28 melanoma it was over 100 µM. The TGI in the test with KM12 colon was 58.7 µM; with OVCAR-5 ovarian, over 100 µM.

Values taken from PubChem BioAssay (NCI).
